Test results: ChEMBL document CHEMBL1144310, “Identification of agonists and antagonists of the human melanocortin-4 receptor from piperazinebenzylamines” (Bioorg Med Chem Lett, 2005)

Assays:
[1] = test system: HEK293; experiment: Agonist activity in stimulation of cAMP accumulation in HEK 293 cells; conditions: Homo sapiens
[2] = target: T1, Melanocortin receptor 4 (Homo sapiens, UniProt P32245); experiment: Binding affinity towards human melanocortin 4 receptor expressed in HEK 293 cells using [125I]NDP-MSH; assay type: cell-based, HEK293
[3] = target: Melanocortin receptor 3 (Homo sapiens, UniProt P41968); experiment: Binding affinity for human melanocortin 3 receptor
[4] = test system: HEK293; experiment: Inhibition of alpha-MSH-stimulated cAMP production at 10 uM in HEK cell line; assay type: functional; conditions: Homo sapiens
[5] = target: Melanocortin receptor 5 (Homo sapiens, UniProt P33032); experiment: Binding affinity for human melanocortin 5 receptor
[6] = target: T1, Melanocortin receptor 4; experiment: Inhibitory concentration against Melanocortin 4 receptor

T1 sequence (P32245 whole entry): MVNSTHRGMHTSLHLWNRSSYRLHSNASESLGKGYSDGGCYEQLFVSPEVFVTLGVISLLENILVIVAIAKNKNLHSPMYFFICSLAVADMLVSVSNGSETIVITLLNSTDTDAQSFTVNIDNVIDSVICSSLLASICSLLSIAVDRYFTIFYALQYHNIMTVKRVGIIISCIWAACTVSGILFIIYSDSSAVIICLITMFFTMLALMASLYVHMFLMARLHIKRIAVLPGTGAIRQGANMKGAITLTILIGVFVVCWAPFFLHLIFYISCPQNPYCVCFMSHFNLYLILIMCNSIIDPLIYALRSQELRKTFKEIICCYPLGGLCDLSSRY
Sequence of Melanocortin receptor 3 (P41968 whole entry): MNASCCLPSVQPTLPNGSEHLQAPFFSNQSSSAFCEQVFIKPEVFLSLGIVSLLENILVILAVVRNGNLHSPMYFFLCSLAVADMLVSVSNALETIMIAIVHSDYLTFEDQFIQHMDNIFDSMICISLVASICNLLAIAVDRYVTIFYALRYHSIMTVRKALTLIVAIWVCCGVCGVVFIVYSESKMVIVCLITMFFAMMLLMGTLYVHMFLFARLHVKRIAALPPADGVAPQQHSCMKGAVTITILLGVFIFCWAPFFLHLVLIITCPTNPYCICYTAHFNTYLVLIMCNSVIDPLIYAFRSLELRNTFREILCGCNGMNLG
Sequence of Melanocortin receptor 5 (P33032 whole entry): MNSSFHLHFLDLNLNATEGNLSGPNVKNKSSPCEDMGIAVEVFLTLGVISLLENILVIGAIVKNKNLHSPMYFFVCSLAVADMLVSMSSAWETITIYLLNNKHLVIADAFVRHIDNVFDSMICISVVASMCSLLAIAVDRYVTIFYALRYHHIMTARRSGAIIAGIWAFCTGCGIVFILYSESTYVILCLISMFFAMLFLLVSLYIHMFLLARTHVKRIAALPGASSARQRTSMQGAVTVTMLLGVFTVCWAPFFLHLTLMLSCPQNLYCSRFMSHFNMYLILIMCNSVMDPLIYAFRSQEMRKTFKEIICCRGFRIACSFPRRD

Structure (SMILES) | Ki [2] | EC50 [1] | further results
CN1CCN(Cc2ccccc2N2CCN(C(=O)[C@@H](Cc3ccc(Cl)cc3)NC(=O)[C@H]3Cc4ccccc4CN3)CC2)CC1 | 240 nM | 720 nM | 
O=C(N[C@H](Cc1ccc(Cl)cc1)C(=O)N1CCN(c2ccccc2CNCCCn2ccnc2)CC1)[C@H]1Cc2ccccc2CN1 | 370 nM | 640 nM | 
O=C(N[C@H](Cc1ccc(Cl)cc1)C(=O)N1CCN(c2ccccc2CN2CCOCC2)CC1)[C@H]1Cc2ccccc2CN1 | 53 nM | 360 nM | 
O=C(N[C@H](Cc1ccc(Cl)cc1)C(=O)N1CCN(c2ccccc2CNc2ccncc2)CC1)[C@H]1Cc2ccccc2CN1 | 36 nM | 350 nM | 
O=C(N[C@H](Cc1ccc(Cl)cc1)C(=O)N1CCN(c2ccccc2CNCCCN2CCCCCC2)CC1)[C@H]1Cc2ccccc2CN1 | 160 nM | 570 nM | 
CN(C)CCN(Cc1ccccc1)Cc1ccccc1N1CCN(C(=O)[C@@H](Cc2ccc(Cl)cc2)NC(=O)[C@H]2Cc3ccccc3CN2)CC1 | 22 nM | 550 nM | 
CC(NC1CCCNC1)c1ccccc1N1CCN(C(=O)[C@@H](Cc2ccc(Cl)cc2)NC(=O)[C@H]2Cc3ccccc3CN2)CC1 (some centres undefined) |  | 4.7 nM | 
O=C(N[C@H](Cc1ccc(Cl)cc1)C(=O)N1CCN(c2ccccc2CNCCN2CCOCC2)CC1)[C@H]1Cc2ccccc2CN1 | 120 nM | 570 nM | 
N[C@H]1CCCC[C@@H]1NCc1ccccc1N1CCN(C(=O)[C@@H](Cc2ccc(Cl)cc2)NC(=O)[C@H]2Cc3ccccc3CN2)CC1 | 89 nM | 390 nM | 
CCOC(=O)CN(C)Cc1ccccc1N1CCN(C(=O)[C@@H](Cc2ccc(Cl)cc2)NC(=O)[C@H]2Cc3ccccc3CN2)CC1 | 140 nM | 210 nM | 
O=C(N[C@H](Cc1ccc(Cl)cc1)C(=O)N1CCN(c2ccccc2CNCCc2cccs2)CC1)[C@H]1Cc2ccccc2CN1 |  | 360 nM | 
CN(C)CCC(=O)N[C@H](Cc1ccc(Cl)cc1)C(=O)N1CCC(Cn2cncn2)(C2CCCCC2)CC1 |  | 40 nM | 
CC(C)COCCCNCc1ccccc1N1CCN(C(=O)[C@@H](Cc2ccc(Cl)cc2)NC(=O)[C@H]2Cc3ccccc3CN2)CC1 | 110 nM | 520 nM | 
CC(C)COCCCNC(C)c1ccccc1N1CCN(C(=O)[C@@H](Cc2ccc(Cl)cc2)NC(=O)[C@H]2Cc3ccccc3CN2)CC1 (some centres undefined) | 41 nM | 560 nM | 
O=C(N[C@H](Cc1ccc(Cl)cc1)C(=O)N1CCN(c2ccccc2CNCCCN2CCCC2=O)CC1)[C@H]1Cc2ccccc2CN1 | 270 nM | 360 nM | 

Further lines, with some results ahead:

Ki [2] | Structure (SMILES) | EC50 [1] | further results
24 nM | CC(NC1CCCNC1)c1ccccc1N1CCN(C(=O)[C@@H](Cc2ccc(Cl)cc2)NC(=O)C2(N)Cc3ccccc3C2)CC1 (some centres undefined) | 440 nM | 
33 nM | CC(NC1CCCNC1)c1ccccc1N1CCN(C(=O)[C@@H](Cc2ccc(Cl)cc2)NC(=O)CCc2ccccc2)CC1 (some centres undefined) |  | 
30 nM | CC(NC1CCCNC1)c1ccccc1N1CCN(C(=O)[C@@H](Cc2ccc(Cl)cc2)NC(=O)Cc2ccccc2)CC1 (some centres undefined) |  | 
52 nM | CC(NC1CCCNC1)c1ccccc1N1CCN(C(=O)[C@@H](Cc2ccc(Cl)cc2)NC(=O)C(N)Cc2ccccc2)CC1 (some centres undefined) | 400 nM | 
87 nM | CC(NCCN1CCOCC1)c1ccccc1N1CCN(C(=O)[C@@H](Cc2ccc(Cl)cc2)NC(=O)[C@H]2Cc3ccccc3CN2)CC1 (some centres undefined) | 230 nM | 
4.8 nM | CC(NC1CCCNC1)c1ccccc1N1CCN(C(=O)[C@@H](Cc2ccc(Cl)cc2)NC(=O)c2cnc3ccccc3c2)CC1 (some centres undefined) |  | Ki [3]: 630 nM; inhibition at 10 µM [4]: 38%; Ki [5]: 600 nM; IC50 [6]: 300 nM
49 nM | CC(NC1CCCNC1)c1ccccc1N1CCN(C(=O)[C@@H](Cc2ccc(Cl)cc2)NC(=O)C(N)Cc2cccnc2)CC1 (some centres undefined) |  | 
78 nM | O=C(N[C@H](Cc1ccc(Cl)cc1)C(=O)N1CCN(c2ccccc2CN2CCCNCC2)CC1)[C@H]1Cc2ccccc2CN1 | 210 nM | 
10 nM | CC(NC1CCCNC1)c1ccccc1N1CCN(C(=O)[C@@H](Cc2ccc(Cl)cc2)NC(=O)C2(N)CCc3ccccc3C2)CC1 (some centres undefined) | 330 nM | 
34 nM | CC(NC1CCCNC1)c1ccccc1N1CCN(C(=O)[C@@H](Cc2ccc(Cl)cc2)NC(=O)C(N)c2ccccc2)CC1 (some centres undefined) |  | 
47 nM | CC(NC1CCCNC1)c1ccccc1N1CCN(C(=O)[C@@H](Cc2ccc(Cl)cc2)NC(=O)C2(N)CCc3ccccc32)CC1 (some centres undefined) |  | 
120 nM | CC(NC1CCCNC1)c1ccccc1N1CCN(C(=O)[C@@H](Cc2ccc(Cl)cc2)NC(=O)C(N)C2CCc3ccccc32)CC1 (some centres undefined) | 630 nM | 
56 nM | CC(NC1CCCNC1)c1ccccc1N1CCN(C(=O)[C@@H](Cc2ccc(Cl)cc2)NC(=O)C(N)Cc2ccccn2)CC1 (some centres undefined) | 220 nM | 
6.3 nM | CC(NC1CCCNC1)c1ccccc1N1CCN(C(=O)[C@@H](Cc2ccc(Cl)cc2)NC(=O)CC2NCCc3ccccc32)CC1 (some centres undefined) | 31 nM | Ki [3]: 1900 nM
